# Counter-ions that a name gives are not always drawn. Active and inactive are the calls of the source.
# Columns and labels:
# HEK293 [1] = experiment: cells; details: Homo sapiens
# HEK293 [2] = experiment: cells; details: Homo sapiens; remark: listed apart in the source
# [3] = decrease of insulin promoter-GFP reporter – imaging, high-content screening, mouse beta cells (AID 1628); format: functional; details: MIN6
# [4] = MIN6 cell viability loss – mouse insulinoma, cytotoxicity control, dose response (AID 2122); format: functional;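 note: confirmatory high-throughput counterscreen run to flag cytotoxic compounds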
# [5] = biological target: Heat shock protein HSP 90-alpha (Homo sapiens, UniProt P07900); format: functional, organism-based
# Vero = experiment: viability of Vero cells under compound – cytotoxicity control for flavivirus capping enzyme inhibitors (AID 588742); format: functional; details: Chlorocebus sabaeus
# Genome polyprotein = Genome polyprotein (dengue virus type 2, UniProt P29990); experiment: flavivirus cap methylation enzyme inhibition – biochemical, confirmation dose response, primary screen (AID 588689); format: functional
# Cytochrome P450 3A4 = Cytochrome P450 3A4 (Homo sapiens, UniProt P08684);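 note: CYP3A4 tested as one member of a cytochrome P450 panel screen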
# SUMO E1/E2 = SUMO E1/E2 (Homo sapiens, UniProt P63279+Q9UBE0+Q9UBT2); experiment: SAR analysis of SUMOylation using HTRF in an in-Vitro dose response assay. [Related pubchem assays (depositor defined):AID2006, AID2011, AID2018, AID2069, AID2658]; format: functional
# [6] = Trypanosoma cruzi growth suppression in host cells – NIH3T3 host cells, beta-gal luminescence, confirmation (AID 2044); format: functional, cell-based;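 note: intracellular parasites grown in NIH/3T3 mouse fibroblasts as host cells; luminescent beta-galactosidase reporter signal from transgenic T. cruzi replicating inside host cells; inhibitors lower the luminescence signal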
# [7] = biological target: T1, Ubiquitin-conjugating enzyme E2 N (Homo sapiens, UniProt P61088); format: functional
# T1 sequence (P61088 whole entry): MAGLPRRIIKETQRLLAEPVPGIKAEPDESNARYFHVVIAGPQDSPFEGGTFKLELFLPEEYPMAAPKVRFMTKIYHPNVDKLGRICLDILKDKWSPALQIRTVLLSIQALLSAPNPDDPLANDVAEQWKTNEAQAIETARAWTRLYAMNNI
# INS1 = experiment: INS-1E survival protection against cytokine death – cell-based, luminescence, retest, dose response (AID 449756); format: functional; details: Rattus norvegicus;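 note: cell death triggered by IL-1 beta plus TNF-alpha plus IFN-gamma mixture; protective hits raise ATP signal compared with cytokine alone wells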
# Bcl-2-related protein A1 = biological target: T2, Bcl-2-related protein A1 (Mus musculus, UniProt Q07440); format: functional;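 note: confirmatory dose–response counterscreen on Bfl-1, used to check hits from a UBC13 polyubiquitin inhibitor campaign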
# T2 sequence (Q07440 whole entry): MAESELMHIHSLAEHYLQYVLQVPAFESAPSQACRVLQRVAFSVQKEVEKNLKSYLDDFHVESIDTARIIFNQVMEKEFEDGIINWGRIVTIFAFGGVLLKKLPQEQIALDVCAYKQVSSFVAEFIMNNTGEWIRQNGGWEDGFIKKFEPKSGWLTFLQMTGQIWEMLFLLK
# [8] = viability loss in THP-1 monocytes – THP-1 cells, cytotoxicity control for Vif-APOBEC3G degradation inhibitor project, dose response (AID 1117359); format: functional; details: THP-1
# [9] = biological target: T1, Ubiquitin-conjugating enzyme E2 N; format: functional; remark: listed apart in the source
# [10] = NIH3T3 cell viability loss – ATP luminescence, mouse fibroblasts, counter-screen, dose response (AID 2010); format: functional, cell-based;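 note: cells exposed to compound for about 90 hours before reading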
# Cytochrome P450 2C9 [11] = biological target: T3, Cytochrome P450 2C9 (Homo sapiens, UniProt P11712)
# Cytochrome P450 2C9 [12] = biological target: T3, Cytochrome P450 2C9; details: Potency
# Cytochrome P450 2D6 = Cytochrome P450 2D6 (Homo sapiens, UniProt P10635);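 note: CYP2D6 member of a cytochrome P450 panel assay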
# [13] = biological target: Voltage-gated inwardly rectifying potassium channel KCNH2 (Homo sapiens, UniProt Q12809); details: Potency;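 note: confirmatory quantitative high-throughput screen measuring inhibition of hERG channel activity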
# Voltage-gated inwardly rectifying potassium channel KCNH2, sequence (Q12809 whole entry): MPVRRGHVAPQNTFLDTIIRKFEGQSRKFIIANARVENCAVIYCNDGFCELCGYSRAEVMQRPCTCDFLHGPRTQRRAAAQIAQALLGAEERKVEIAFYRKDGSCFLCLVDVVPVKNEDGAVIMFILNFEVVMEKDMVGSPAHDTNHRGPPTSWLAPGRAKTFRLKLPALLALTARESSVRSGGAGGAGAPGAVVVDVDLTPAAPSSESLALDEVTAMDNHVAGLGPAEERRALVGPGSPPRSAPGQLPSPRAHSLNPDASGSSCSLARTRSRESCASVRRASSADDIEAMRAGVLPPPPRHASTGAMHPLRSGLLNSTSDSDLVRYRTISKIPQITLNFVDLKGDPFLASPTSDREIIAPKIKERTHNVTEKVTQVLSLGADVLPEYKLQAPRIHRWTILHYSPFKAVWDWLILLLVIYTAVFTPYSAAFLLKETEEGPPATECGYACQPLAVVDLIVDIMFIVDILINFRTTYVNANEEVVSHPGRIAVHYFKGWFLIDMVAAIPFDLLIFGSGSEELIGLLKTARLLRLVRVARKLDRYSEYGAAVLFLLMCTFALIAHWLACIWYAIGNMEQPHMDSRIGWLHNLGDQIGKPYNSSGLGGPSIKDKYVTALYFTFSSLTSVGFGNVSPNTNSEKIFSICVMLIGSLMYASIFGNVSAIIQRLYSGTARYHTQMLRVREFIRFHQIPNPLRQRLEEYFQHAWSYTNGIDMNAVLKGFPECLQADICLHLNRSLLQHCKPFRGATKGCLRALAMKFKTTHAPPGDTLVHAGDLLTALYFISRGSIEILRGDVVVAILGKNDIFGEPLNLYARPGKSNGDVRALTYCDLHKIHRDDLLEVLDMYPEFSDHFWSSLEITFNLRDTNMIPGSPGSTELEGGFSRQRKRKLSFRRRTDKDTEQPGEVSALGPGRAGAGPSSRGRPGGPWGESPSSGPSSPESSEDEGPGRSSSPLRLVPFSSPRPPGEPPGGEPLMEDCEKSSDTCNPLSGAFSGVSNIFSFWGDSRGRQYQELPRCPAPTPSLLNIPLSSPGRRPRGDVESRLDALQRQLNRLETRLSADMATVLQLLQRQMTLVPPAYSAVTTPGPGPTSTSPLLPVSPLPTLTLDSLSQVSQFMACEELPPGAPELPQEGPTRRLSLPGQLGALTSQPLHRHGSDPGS
# T3 sequence (P11712 whole entry): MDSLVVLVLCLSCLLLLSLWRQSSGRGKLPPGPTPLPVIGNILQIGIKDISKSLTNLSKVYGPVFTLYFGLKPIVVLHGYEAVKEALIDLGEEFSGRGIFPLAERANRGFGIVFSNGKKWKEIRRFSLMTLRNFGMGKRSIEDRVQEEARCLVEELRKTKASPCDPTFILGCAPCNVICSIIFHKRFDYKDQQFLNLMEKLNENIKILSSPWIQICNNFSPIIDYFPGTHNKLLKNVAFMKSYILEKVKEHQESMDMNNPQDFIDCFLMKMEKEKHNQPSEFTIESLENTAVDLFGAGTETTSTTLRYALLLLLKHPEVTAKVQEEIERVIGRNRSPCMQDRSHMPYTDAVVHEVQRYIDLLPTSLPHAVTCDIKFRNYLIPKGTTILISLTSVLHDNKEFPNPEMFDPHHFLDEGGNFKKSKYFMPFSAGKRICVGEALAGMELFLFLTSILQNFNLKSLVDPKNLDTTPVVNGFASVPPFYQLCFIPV
# SUMO E1/E2, sequence (Q9UBE0 whole entry): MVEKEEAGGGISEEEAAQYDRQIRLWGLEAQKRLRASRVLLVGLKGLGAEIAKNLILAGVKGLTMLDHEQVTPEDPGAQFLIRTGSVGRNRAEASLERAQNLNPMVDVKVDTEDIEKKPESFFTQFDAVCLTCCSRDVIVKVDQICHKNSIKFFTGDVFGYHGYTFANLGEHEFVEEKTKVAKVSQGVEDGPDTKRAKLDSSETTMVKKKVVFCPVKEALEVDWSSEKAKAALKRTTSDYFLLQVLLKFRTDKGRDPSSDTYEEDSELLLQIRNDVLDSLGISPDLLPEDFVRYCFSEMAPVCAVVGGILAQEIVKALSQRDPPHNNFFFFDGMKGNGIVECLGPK
# SUMO E1/E2, sequence (Q9UBT2 whole entry): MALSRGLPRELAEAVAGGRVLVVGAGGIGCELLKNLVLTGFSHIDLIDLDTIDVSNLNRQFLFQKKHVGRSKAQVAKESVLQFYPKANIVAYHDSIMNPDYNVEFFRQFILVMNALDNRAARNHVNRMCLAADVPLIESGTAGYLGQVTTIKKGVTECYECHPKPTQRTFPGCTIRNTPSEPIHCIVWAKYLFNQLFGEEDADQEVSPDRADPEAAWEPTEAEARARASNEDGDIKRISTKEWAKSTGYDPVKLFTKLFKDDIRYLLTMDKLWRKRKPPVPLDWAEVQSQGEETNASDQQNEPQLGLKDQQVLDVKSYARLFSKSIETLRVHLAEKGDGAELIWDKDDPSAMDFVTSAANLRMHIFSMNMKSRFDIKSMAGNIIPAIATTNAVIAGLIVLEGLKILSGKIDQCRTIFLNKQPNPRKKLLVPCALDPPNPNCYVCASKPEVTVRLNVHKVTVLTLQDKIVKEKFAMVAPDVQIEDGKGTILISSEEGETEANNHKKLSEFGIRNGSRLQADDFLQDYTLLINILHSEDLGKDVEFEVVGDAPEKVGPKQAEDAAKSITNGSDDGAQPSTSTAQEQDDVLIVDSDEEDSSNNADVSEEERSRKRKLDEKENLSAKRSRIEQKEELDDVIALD
# SUMO E1/E2, sequence (P63279 whole entry): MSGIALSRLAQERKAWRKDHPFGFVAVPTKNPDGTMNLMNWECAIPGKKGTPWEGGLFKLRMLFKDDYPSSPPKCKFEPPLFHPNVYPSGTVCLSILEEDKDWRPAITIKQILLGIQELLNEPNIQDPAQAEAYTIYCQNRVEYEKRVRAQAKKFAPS
# Cytochrome P450 3A4, sequence (P08684 whole entry): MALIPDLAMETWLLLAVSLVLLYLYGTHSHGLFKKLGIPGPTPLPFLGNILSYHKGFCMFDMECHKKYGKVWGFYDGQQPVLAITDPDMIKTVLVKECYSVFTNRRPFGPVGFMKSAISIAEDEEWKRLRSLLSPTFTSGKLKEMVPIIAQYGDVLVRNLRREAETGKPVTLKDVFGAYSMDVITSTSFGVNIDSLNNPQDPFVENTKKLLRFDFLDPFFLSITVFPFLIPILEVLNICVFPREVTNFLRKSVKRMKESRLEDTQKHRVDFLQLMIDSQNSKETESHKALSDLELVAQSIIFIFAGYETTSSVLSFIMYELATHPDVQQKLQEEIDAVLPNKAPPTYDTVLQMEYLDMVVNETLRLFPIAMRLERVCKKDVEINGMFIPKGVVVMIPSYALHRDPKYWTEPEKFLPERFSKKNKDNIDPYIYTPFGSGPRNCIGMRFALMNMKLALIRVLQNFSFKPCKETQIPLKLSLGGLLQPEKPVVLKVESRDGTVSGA
# Cytochrome P450 2D6, sequence (P10635 whole entry): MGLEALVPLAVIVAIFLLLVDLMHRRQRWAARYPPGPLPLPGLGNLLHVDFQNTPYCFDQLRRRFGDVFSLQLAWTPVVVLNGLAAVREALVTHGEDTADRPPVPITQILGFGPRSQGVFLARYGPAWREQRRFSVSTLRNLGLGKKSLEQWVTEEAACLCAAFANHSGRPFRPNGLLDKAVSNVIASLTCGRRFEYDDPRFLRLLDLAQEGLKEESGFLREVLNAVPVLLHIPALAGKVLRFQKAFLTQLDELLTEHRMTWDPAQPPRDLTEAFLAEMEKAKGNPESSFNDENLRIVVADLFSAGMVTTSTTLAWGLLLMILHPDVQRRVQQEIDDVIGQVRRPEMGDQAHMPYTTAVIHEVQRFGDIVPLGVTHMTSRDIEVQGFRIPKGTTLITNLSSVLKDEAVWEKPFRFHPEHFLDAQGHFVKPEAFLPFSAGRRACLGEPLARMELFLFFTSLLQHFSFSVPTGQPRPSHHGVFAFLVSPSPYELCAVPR
# Genome polyprotein, sequence (P29990 2492-3391 limits assumed): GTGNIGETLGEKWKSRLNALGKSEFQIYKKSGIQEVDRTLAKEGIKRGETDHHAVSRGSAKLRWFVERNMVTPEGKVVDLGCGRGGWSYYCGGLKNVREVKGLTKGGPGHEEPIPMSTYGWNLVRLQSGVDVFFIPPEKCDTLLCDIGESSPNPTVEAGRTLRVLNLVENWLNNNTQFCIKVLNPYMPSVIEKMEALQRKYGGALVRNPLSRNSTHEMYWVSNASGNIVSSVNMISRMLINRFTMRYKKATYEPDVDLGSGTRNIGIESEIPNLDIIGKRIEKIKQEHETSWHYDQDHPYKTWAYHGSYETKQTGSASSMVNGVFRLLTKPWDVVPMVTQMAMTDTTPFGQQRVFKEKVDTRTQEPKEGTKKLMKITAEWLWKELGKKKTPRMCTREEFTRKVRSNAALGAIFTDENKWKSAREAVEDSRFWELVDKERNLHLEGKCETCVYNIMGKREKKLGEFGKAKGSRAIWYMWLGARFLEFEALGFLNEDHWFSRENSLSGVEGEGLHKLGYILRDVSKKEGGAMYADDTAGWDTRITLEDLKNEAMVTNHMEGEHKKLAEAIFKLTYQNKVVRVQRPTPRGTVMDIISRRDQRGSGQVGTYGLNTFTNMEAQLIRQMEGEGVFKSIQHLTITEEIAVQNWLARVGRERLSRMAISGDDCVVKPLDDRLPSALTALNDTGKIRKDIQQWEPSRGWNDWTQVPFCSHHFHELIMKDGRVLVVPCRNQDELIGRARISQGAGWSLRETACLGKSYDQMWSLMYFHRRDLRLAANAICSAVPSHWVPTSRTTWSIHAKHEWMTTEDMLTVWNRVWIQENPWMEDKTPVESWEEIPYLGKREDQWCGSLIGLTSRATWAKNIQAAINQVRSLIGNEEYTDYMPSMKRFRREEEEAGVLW
smiles,measurement,setting,value
CCOC(=O)CN=C(S)N(Cc1cccs1)C1CCCCC1,EC50,HEK293 [1],> 59.6 µM (inactive)
same,EC50,HEK293 [2],> 59.6 µM (inactive)
CC(C)Oc1cccc(C(=O)C2CCCN(Cc3cccn3-c3ccccn3)C2)c1 (stereo not drawn),IC50,[3],3.3 µM (active)
same,IC50,[4],7.53 µM (active)
CC(=O)N(C(C)=O)N1C(=O)/C(=C/c2ccc(Cl)cc2)SC1=S,AC50,[5],1.34 µM (active)
same,CC50,Vero,> 40 µM (active)
same,IC50,Genome polyprotein,23.5 µM (active)
OCCN1CCOCCOCCN(CCO)CCN(CCO)CC1,AC50,Cytochrome P450 3A4,inconclusive
Cc1ccsc1/C=N/c1ccc(C(N)=O)cc1,IC50,SUMO E1/E2,> 100 µM (inactive)
COc1ccccc1CNC(=O)COC(=O)c1cc(-c2cccs2)nc2ccccc12,IC50,SUMO E1/E2,30.1 µM (active)
COc1cc(/C=N/N=C(N)N)ccc1OCc1ccc(Cl)cc1,EC50,[6],0.397 µM (active)
same,IC50,[7],13.2 µM (active)
same,IC50,[3],1.03 µM (active)
same,AC50,INS1,2.95 µM (active)
same,IC50,Bcl-2-related protein A1,> 20 µM (inactive)
same,CC50,[8],5.63 µM (active)
same,IC50,[9],12.9 µM (active)
same,EC50,[10],> 30 µM (not active)
same,IC50,[4],0.916 µM (active)
COc1cc2c(c(OC)c1OC)-c1ccc(OC)c(=O)cc1[C@H](NC(C)=O)CC2,AC50,Cytochrome P450 2C9 [11],inactive
same,AC50,Cytochrome P450 2C9 [12],39.8 µM (inconclusive)
same,AC50,Cytochrome P450 2D6,inactive
Nc1c2c(nc3ccccc13)CCCC2O (stereo not drawn) [VELNACRINE MALEATE],AC50,[13],35.5 µM (inconclusive)
